Key:
Assay in all cases: relative viability (nuclei count vs DMSO), 5 days (fraction); higher = more cells survive
Bosutinib + Bortezomib = compound: COc1cc(Nc2c(C#N)cnc3cc(OCCCN4CCN(C)CC4)c(OC)cc23)c(Cl)cc1Cl [Bosutinib] + CC(C)C[C@H](NC(=O)[C@H](Cc1ccccc1)NC(=O)c1cnccn1)B(O)O [Bortezomib] (partner 0.002 µM)
Summary of the method: (§1)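 Relative viability was taken as the ratio of nuclei in treated wells to nuclei in vehicle wells. Lung cancer cell lines in 1536-well plates received compounds by pin tool one day after seeding, either one drug alone or a fixed anchor-drug dose plus five library-drug doses (not always all listed) in √10 steps. Nuclei were counted on 4× images after 5 days of treatment, and values are medians of duplicate plates.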

Bosutinib + Luminespib = compound: COc1cc(Nc2c(C#N)cnc3cc(OCCCN4CCN(C)CC4)c(OC)cc23)c(Cl)cc1Cl [Bosutinib] + CCNC(=O)c1noc(-c2cc(C(C)C)c(O)cc2O)c1-c1ccc(CN2CCOCC2)cc1 [Luminespib] (partner 0.01 µM)
Summary of the method: as §1

Bosutinib + Foretinib = compound: COc1cc(Nc2c(C#N)cnc3cc(OCCCN4CCN(C)CC4)c(OC)cc23)c(Cl)cc1Cl [Bosutinib] + COc1cc2c(Oc3ccc(NC(=O)C4(C(=O)Nc5ccc(F)cc5)CC4)cc3F)ccnc2cc1OCCCN1CCOCC1 [Foretinib] (partner 0.25 µM)
Summary of the method: as §1

Bosutinib + Tozasertib = compound: COc1cc(Nc2c(C#N)cnc3cc(OCCCN4CCN(C)CC4)c(OC)cc23)c(Cl)cc1Cl [Bosutinib] + Cc1cc(Nc2cc(N3CCN(C)CC3)nc(Sc3ccc(NC(=O)C4CC4)cc3)n2)n[nH]1 [Tozasertib] (partner 0.1 µM)
Summary of the method: as §1

Bosutinib + Vorinostat = compound: COc1cc(Nc2c(C#N)cnc3cc(OCCCN4CCN(C)CC4)c(OC)cc23)c(Cl)cc1Cl [Bosutinib] + O=C(CCCCCCC(=O)Nc1ccccc1)NO [Vorinostat] (partner 1 µM)
Summary of the method: as §1

Cell Line	relative viability (Bosutinib + Bortezomib; first compound 0.01 µM)	relative viability (Bosutinib + Bortezomib; first compound 0.03162 µM)	relative viability (Bosutinib + Bortezomib; first compound 0.1 µM)	relative viability (Bosutinib + Bortezomib; first compound 1 µM)	relative viability (Bosutinib + Luminespib; first compound 0.01 µM)	relative viability (Bosutinib + Luminespib; first compound 0.03162 µM)	relative viability (Bosutinib + Luminespib; first compound 0.1 µM)	relative viability (Bosutinib + Luminespib; first compound 1 µM)	relative viability (Bosutinib + Foretinib; first compound 0.01 µM)	relative viability (Bosutinib + Foretinib; first compound 0.03162 µM)	relative viability (Bosutinib + Foretinib; first compound 0.1 µM)	relative viability (Bosutinib + Foretinib; first compound 1 µM)	relative viability (Bosutinib + Tozasertib; first compound 0.01 µM)	relative viability (Bosutinib + Tozasertib; first compound 0.03162 µM)	relative viability (Bosutinib + Tozasertib; first compound 0.1 µM)	relative viability (Bosutinib + Tozasertib; first compound 1 µM)	relative viability (Bosutinib + Vorinostat; first compound 0.01 µM)	relative viability (Bosutinib + Vorinostat; first compound 0.03162 µM)	relative viability (Bosutinib + Vorinostat; first compound 0.1 µM)	relative viability (Bosutinib + Vorinostat; first compound 1 µM)
NCI-H3122	1	1.1	1.04	1.06	0.0649	0.0933	0.104	0.104	1.04	0.979	0.926	0.993	0.495	0.547	0.405	0.431	0.991	0.917	0.967	0.953
PC-3 [JPC-3]	0.8	0.773	0.765	0.77	0.679	0.835	0.685	0.569	1	0.993	1.05	0.759	0.856	0.854	0.92	0.819	0.853	0.983	0.918	0.541
PC-14	0.871	0.922	0.808	0.276	0.109	0.394	0.126	0.16	0.963	0.975	0.98	0.255	0.581	0.501	0.473	0.208	0.783	0.694	0.673	0.126
RERF-LC-KJ	1.08	1.08	1.07	1.05	1.22	1.21	1.18	1.15	0.893	0.888	0.815	0.867	0.58	0.436	0.491	0.599	0.691	0.705	0.733	0.811
SK-LU-1	1.15	1.21	1.04	0.922	0.199	0.189	0.212	0.187	0.841	0.85	0.813	0.449	0.305	0.289	0.341	0.283	0.848	0.768	0.844	0.632
SW 1573	1.05	1.06	0.917	1.02	0.267	0.956	0.246	0.183	0.913	0.825	0.693	0.858	0.24	0.166	0.119	0.202	0.89	0.843	0.593	0.788
UMC-11	0.683	0.778	0.718	0.666	0.967	1.16	1.05	0.806	0.979	1.07	1.03	0.94	0.202	0.191	0.189	0.214	0.354	0.383	0.43	0.364

Reference: the supplement of paper PMC10307832
